From ChEMBL document CHEMBL4020776, “Stabilizing HDAC11 with SAHA to assay slow-binding benzamide inhibitors” (Bioorg Med Chem Lett, 2017)
pIC50: −log10 of the molar value.

What was measured:
[1] = target: T1, Histone deacetylase 11 (Homo sapiens) (UniProt Q96DB2); experiment: (§1) Inhibition of recombinant C-terminal His-tagged HDAC11 (unknown origin) expressed in baculovirus infected Sf9 cells at 2 uM using Ac-Arg-Gly-Lys(Ac)-AMC as substrate pretreated for 3 hrs followed by substrate addition after 30 mins by fluorometric method relative to control
T1 sequence (whole entry): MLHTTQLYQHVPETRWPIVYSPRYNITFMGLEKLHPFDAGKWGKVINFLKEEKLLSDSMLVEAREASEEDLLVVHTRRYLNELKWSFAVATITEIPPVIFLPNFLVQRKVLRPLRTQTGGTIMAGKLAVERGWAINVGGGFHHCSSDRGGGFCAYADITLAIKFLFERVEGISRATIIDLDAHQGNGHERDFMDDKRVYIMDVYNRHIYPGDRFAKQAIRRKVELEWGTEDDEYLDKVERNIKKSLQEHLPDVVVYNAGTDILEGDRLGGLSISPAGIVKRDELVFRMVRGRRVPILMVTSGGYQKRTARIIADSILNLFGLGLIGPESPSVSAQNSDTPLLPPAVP

[2] = target: T1, Histone deacetylase 11 (Homo sapiens); experiment: as §1, with “mins in presence of 0.2 uM SAHA” for “mins”
[3] = target: T1, Histone deacetylase 11 (Homo sapiens); experiment: Inhibition of recombinant C-terminal His-tagged HDAC11 (unknown origin) expressed in baculovirus infected Sf9 cells at 5 uM using Ac-Arg-Gly-Lys(Ac)-AMC as substrate pretreated followed by substrate addition after 30 mins by fluorometric method; conditions: TDE = time-dependent effect
[4] = target: T2, Histone deacetylase 11 (Homo sapiens, UniProt Q96DB2); experiment: Inhibition of recombinant C-terminal His-tagged HDAC11 (unknown origin) expressed in baculovirus infected Sf9 cells using Ac-Arg-Gly-Lys(Ac)-AMC as substrate pretreated for 3 hrs followed by substrate addition after 30 mins by fluorometric method
T2 sequence (Q96DB2 whole entry): T1 sequence (whole entry)

[5] = target: T2, Histone deacetylase 11; experiment: Inhibition of recombinant C-terminal His-tagged HDAC11 (unknown origin) expressed in baculovirus infected Sf9 cells using Ac-Arg-Gly-Lys(Ac)-AMC as substrate pretreated for 3 hrs followed by substrate addition after 30 mins in presence of 0.2 uM SAHA by fluorometric method

Row | inhibition [1] [%] | inhibition [2] [%] | inhibition [3] | pIC50 [4] | pIC50 [5] | SMILES
1 | < 0 | < 10 | – | – | – | Nc1ccccc1NC(=O)/C=C/c1cn([C@H]2C[C@@H](C(=O)O)N(Cc3ccccc3)C2)nn1
2 | < 0 | < 10 | – | – | – | Nc1ccccc1NC(=O)/C=C/c1cn([C@@H]2C[C@H](CO)N(CCc3ccccc3)C2)nn1
3 | < 0 | < 10 | – | – | – | Nc1ccccc1NC(=O)/C=C/c1cn([C@H]2C[C@@H](C(=O)O)N(CCCc3ccccc3)C2)nn1
4 | 67 | 59 | Tde | 6.05 | 5.89 | Nc1ccccc1NC(=O)c1ccc(CNC(=O)OCc2cccnc2)cc1 [ENTINOSTAT]
5 | < 0 | < 10 | – | – | – | Nc1ccccc1NC(=O)/C=C/c1cn([C@@H]2C[C@@H](C(=O)O)N(Cc3ccccc3)C2)nn1
6 | < 10 | < 10 | – | – | – | Nc1ccccc1NC(=O)/C=C/c1cn([C@@H]2C[C@@H](C(=O)O)N(CCc3ccccc3)C2)nn1
7 | < 10 | < 10 | – | – | – | Nc1ccccc1NC(=O)/C=C/c1cn([C@@H]2C[C@H](C(=O)O)N(CCCc3ccccc3)C2)nn1
8 | 12 | < 10 | – | – | – | Nc1ccccc1NC(=O)/C=C/c1cn([C@H]2C[C@H](C(=O)O)N(Cc3ccccc3)C2)nn1
9 | < 10 | 14 | – | – | – | Nc1ccccc1NC(=O)/C=C/c1cn([C@@H]2C[C@H](CO)N(Cc3ccccc3)C2)nn1
10 | < 10 | 16 | – | – | – | Nc1ccccc1NC(=O)/C=C/c1cn([C@H]2C[C@H](CO)N(CCCc3ccccc3)C2)nn1
11 | – | < 10 | – | – | – | Nc1ccccc1NC(=O)/C=C/c1cn([C@H]2C[C@@H](C(=O)O)N(CCc3ccccc3)C2)nn1
12 | < 10 | < 10 | – | – | – | Nc1ccccc1NC(=O)/C=C/c1cn([C@@H]2C[C@@H](C(=O)O)N(CCCc3ccccc3)C2)nn1
13 | < 0 | 12 | – | – | – | Nc1ccccc1NC(=O)/C=C/c1cn([C@@H]2C[C@H](CO)N(CCCc3ccccc3)C2)nn1
14 | < 10 | < 10 | – | – | – | Nc1ccccc1NC(=O)/C=C/c1cn([C@H]2C[C@H](CO)N(CCc3ccccc3)C2)nn1
15 | < 0 | 19 | – | – | – | Nc1ccccc1NC(=O)/C=C/c1cn([C@H]2C[C@@H](CO)N(CCCc3ccccc3)C2)nn1
16 | – | < 10 | – | – | – | Nc1ccccc1NC(=O)/C=C/c1cn([C@@H]2C[C@H](C(=O)O)N(Cc3ccccc3)C2)nn1
17 | < 10 | 22 | – | – | – | Nc1ccccc1NC(=O)/C=C/c1cn([C@@H]2C[C@@H](CO)N(Cc3ccccc3)C2)nn1
18 | < 0 | < 10 | – | – | – | Nc1ccccc1NC(=O)/C=C/c1cn([C@H]2C[C@H](C(=O)O)N(CCc3ccccc3)C2)nn1
19 | < 0 | 14 | – | – | – | Nc1ccccc1NC(=O)/C=C/c1cn([C@H]2C[C@H](CO)N(Cc3ccccc3)C2)nn1
20 | < 10 | 20 | – | – | – | Nc1ccccc1NC(=O)/C=C/c1cn([C@H]2C[C@@H](CO)N(CCc3ccccc3)C2)nn1
21 | < 0 | < 10 | – | – | – | Nc1ccccc1NC(=O)/C=C/c1cn([C@H]2C[C@H](C(=O)O)N(CCCc3ccccc3)C2)nn1
22 | 31 | 36 | – | 5.67 | – | Nc1ccccc1NC(=O)/C=C/c1cn([C@H]2C[C@@H](CO)N(Cc3ccccc3)C2)nn1
23 | < 0 | < 10 | – | – | – | Nc1ccccc1NC(=O)/C=C/c1cn([C@@H]2C[C@H](C(=O)O)N(CCc3ccccc3)C2)nn1
24 | – | < 10 | – | – | – | Nc1ccccc1NC(=O)/C=C/c1cn([C@@H]2C[C@@H](CO)N(CCc3ccccc3)C2)nn1
25 | < 10 | 13 | – | – | – | Nc1ccccc1NC(=O)/C=C/c1cn([C@@H]2C[C@@H](CO)N(CCCc3ccccc3)C2)nn1
